Measured values reported in PubChem BioAssay (NCI).
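Results reflect a 48-hour exposure of cells in 96-well plates to compound at five concentrations. Abbreviation: GI50, concentration required for 50% inhibition of growth. TGI denotes the concentration required for complete inhibition of growth.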

Columns and labels:
Assay in all cases: NCI-60 cell line screen, 48 h
[1] = tested on: CAKI-1 renal
[2] = tested on: COLO 205 colon
[3] = tested on: HL-60(TB) leukemia
[4] = tested on: HOP-92 NSCLC
[5] = tested on: KM12 colon
[6] = tested on: LOX IMVI melanoma
[7] = tested on: OVCAR-4 ovarian
[8] = tested on: OVCAR-5 ovarian
[9] = tested on: SK-MEL-2 melanoma
[10] = tested on: SN12C renal
[11] = tested on: SNB-19 CNS
[12] = tested on: SR leukemia
[13] = tested on: MDA-MB-435

Row | SMILES | TGI [1] | TGI [2] | TGI [3] | TGI [4] | TGI [5] | TGI [6] | TGI [7] | TGI [8] | TGI [9] | TGI [10] | TGI [11] | TGI [12] | TGI [13] | GI50 [4] | GI50 [5] | GI50 [13] | GI50 [8] | GI50 [10]
1 | O=C(/C=C(\O)C(=O)O)/C=C(\O)c1ccccc1Cl | > 100 µM | > 100 µM | > 100 µM | > 100 µM | > 100 µM | > 100 µM | > 100 µM | > 100 µM | > 100 µM | > 100 µM | > 100 µM | > 100 µM |  |  |  |  |  | 
2 | CC(C)C1=CC(=O)C(C)(C2=NC(C)(C)CO2)c2ccccc21 (configuration not stated) | > 100 µM | > 100 µM | > 100 µM | > 100 µM | > 100 µM |  | > 100 µM |  | > 100 µM | > 100 µM | > 100 µM | > 100 µM |  |  |  |  |  | 
3 | Cc1cccc(NC(=O)CSc2nnc(Cc3ccccc3)o2)c1 | > 100 µM | > 100 µM | > 100 µM |  | > 100 µM | > 100 µM | > 100 µM | > 100 µM | > 100 µM | > 100 µM | > 100 µM |  |  |  |  |  |  | 
4 | Cc1c(C(=O)Nc2ccc(Cl)c(C(F)(F)F)c2)oc2cc(O)ccc2/c1=N\NC(N)=S | > 100 µM | > 100 µM | > 100 µM |  | > 100 µM | > 100 µM | > 100 µM | > 100 µM | > 100 µM | > 100 µM | > 100 µM | > 100 µM |  |  |  |  |  | 
5 | Cc1nc(Nc2ccccc2)sc1C(=O)NNC(N)=O | > 100 µM | > 100 µM | > 100 µM | > 100 µM | > 100 µM | > 100 µM | > 100 µM | > 100 µM | > 100 µM | > 100 µM | > 100 µM |  |  |  |  |  |  | 
6 | C=CCNC(NCC=C)=C(C(Cl)=C(Cl)Cl)[N+](=O)[O-] | > 100 µM | 37.2 µM |  |  | > 100 µM |  | > 100 µM | > 100 µM | > 100 µM | > 100 µM | > 100 µM |  | > 100 µM |  |  |  |  | 
7 | O=C(O/N=C1/CCC/C1=C\c1ccccc1)c1ccccc1 | > 100 µM | > 100 µM | > 100 µM | > 100 µM | > 100 µM | > 100 µM | > 100 µM | > 100 µM | > 100 µM | > 100 µM |  | > 100 µM |  |  |  |  |  | 
8 | Nc1ccccc1C(=O)NNC(=O)c1ccccc1N | > 100 µM | > 100 µM | > 100 µM | > 100 µM | > 100 µM | > 100 µM | > 100 µM | > 100 µM | > 100 µM | > 100 µM | > 100 µM |  | > 100 µM |  |  |  |  | 
9 | Cc1ccc(C2=NN(C)COC2C(F)(F)F)cc1 (configuration not stated) | > 100 µM | > 100 µM | > 100 µM | > 100 µM | > 100 µM |  | > 100 µM | > 100 µM | > 100 µM | > 100 µM | > 100 µM | > 100 µM |  |  |  |  |  | 
10 | CO[C@H]1C[C@@H]2CC[C@@H](C)[C@@](O)(O2)C(=O)C(=O)N2CCCC[C@H]2C(=O)O[C@H]([C@H](C)C[C@@H]2CC[C@@H](OC(=O)C(C)(CO)CO)[C@H](OC)C2)CC(=O)[C@H](C)/C=C(\C)[C@@H](O)[C@@H](OC)C(=O)[C@H](C)C[C@H](C)/C=C/C=C/C=C/1C | > 79.7 µM | > 60.4 µM | 6.31 µM |  | > 100 µM | > 75.9 µM |  | > 100 µM | > 55.1 µM | > 71.3 µM | > 100 µM |  | > 100 µM | 1.58 µM | 2.17 µM | 2.5 µM | > 59.1 µM | 0.497 µM
